{
  "source": "patent US4912036A",
  "about": "“Rapid differentiation of bacteria using cyclic polypeptide antibiotics” (Eastman Kodak Company, priority 1986, dated 1990)",
  "key": {"K. pneumoniae [1]": {"tested_on": "K. pneumoniae", "assay": "RIND VII reduction solution assay, ΔOD 635 nm", "format": "cell-based, Klebsiella pneumoniae", "settings": "K. pneumoniae 7 × 10^7 /ml, antibiotic 10^-4 molar"}, "S. aureus [2]": {"tested_on": "S. aureus", "assay": "RIND VII reduction solution assay, ΔOD 635 nm", "format": "cell-based, Staphylococcus aureus", "settings": "S. aureus 7 × 10^7 /ml, antibiotic 10^-4 molar", "experimental": "Bacterial suspensions were prepared by growing the cells in BHT broth to stationary phase overnight at 37° C. P. auruginosa was grown with agitation. About 40 ml of each overnight culture was centrifuged, decanted and washed once with 0.05 molar potassium phosphate buffer or 0.05 molar N-2-hydroxy-ethylpiperazine-N'-2-ethanesulfonic acid (HEPES) buffer, pH 7.8, and resuspended in buffer.\nTERGITOL 7 anionic surfactant was used to differentiate viable bacteria according to the prior art method. Various concentrations of TERGITOL 7 surfactant were mixed with a 10% glucose solution (50 μl), 3-(4,5-dimethyl-2-thiazolyl)-2,5-diphenyl-2N-tetrazolium bromide (MTT) (25 μl at 5 mg/ml methanol) or a RIND VII dispersion (1.5 ml) and phenazine methosulfate ETA (25 μl at 3 mg/ml methanol). The volume of each test solution was brought to 3 ml with potassium phosphate buffer. A cell suspension (100 μl at about 10^8 cells/ml) was then added. The solutions were incubated at 37° C. for 15 and 30 minutes in the presence of either E. coli, a gram(-) bacterium, or S. aureus, a gram(+) bacterium. The amount of dye formed was then determined visually, and graded as follows: \"O\" indicates no dye formation, +/- indicates faint dye formation, 1+ indicates light dye formation, 2+ indicates moderate dye formation, 3+ indicates strong dye formation, and 4+ indicates very strong dye formation. […]"}, "S. pyogenes": {"tested_on": "S. pyogenes", "assay": "RIND VII reduction solution assay, ΔOD 635 nm", "format": "cell-based, Streptococcus pyogenes", "settings": "cell concentration 1.5 × 10^8 /ml, antibiotic 10^-4 molar"}, "S. faecalis [3]": {"tested_on": "S. faecalis", "assay": "MTT reduction solution assay, ΔOD 540 nm", "format": "cell-based, Streptococcus faecalis", "settings": "S. faecalis (+) 5×10^7, gramicidin S 0.00625 mg/ml, 37° C.", "experimental": "(§1) These examples illustrate the differentiation of bacteria using a tetrazolium salt and phenolic dye as the reducible compounds and two cyclic polypeptide antibiotics according to the present invention. The tetrazolium salt was 3-(4,5-dimethyl-2-thiazolyl) -2,5-diphenyl-2H-tetrazolium bromide (MTT) which forms a colored formazan dye when reduced. The phenolic dye was 2,6-dichloroindophenol (DCIP) which forms a colorless species when reduced.\n(§2) Solutions of the reducible compounds were prepared with the following: HEPES buffer (3 ml, 0.05 molar, pH 7.5), TRITON X-100 nonionic surfactant (1% concentration), glucose (50 μl of 10% in water), tryptose (50 μl of a 10% solution in water), MTT (25 μl of 5 mg/ml methanol) or DCIP (25 μl of 3 mg/ml methanol) and phenazine methosultate ETA (25 μl of 3 mg/ml methanol).\n(§3) Test solutions were prepared from the following: reducible compound solution from above (200 μl), 50 μl of either gramicidin S solution (6 mg/ml methanol and 9 ml of buffer) or tyrocidin solution (100 mg/ml methanol and 8 ml of buffer) and 50 μl of cell suspension. […] The change in optical density (ΔOD) was determined after 30 minutes at 37° C. at 540 nm for the MTT assay and at 620 nm for the DCIP assay using a commercially available spectrophotometer."}, "K. pneumoniae [4]": {"tested_on": "K. pneumoniae", "assay": "MTT reduction solution assay, ΔOD 540 nm", "format": "cell-based, Klebsiella pneumoniae", "settings": "K. pneumoniae (-) 5×10^7, gramicidin S 0.00625 mg/ml, 37° C.", "experimental": "as §1, §2, §3"}, "S. aureus [5]": {"tested_on": "S. aureus", "assay": "DCIP reduction solution assay, ΔOD 620 nm", "format": "cell-based, Staphylococcus aureus", "settings": "S. aureus (+) 5×10^7, gramicidin S 0.00625 mg/ml, 37° C.", "experimental": "as §1, §2, §3"}, "S. faecalis [6]": {"tested_on": "S. faecalis", "assay": "DCIP reduction solution assay, ΔOD 620 nm", "format": "cell-based, Streptococcus faecalis", "settings": "S. faecalis (+) 5×10^7, gramicidin S 0.00625 mg/ml, 37° C.", "experimental": "as §1, §2, §3"}, "E. cloacae": {"tested_on": "E. cloacae", "assay": "DCIP reduction solution assay, ΔOD 620 nm", "format": "cell-based, Enterobacter cloacae", "settings": "E. cloacae (-) 5×10^7, gramicidin S 0.00625 mg/ml, 37° C.", "experimental": "as §1, §2, §3"}, "[7]": {"tested_on": "viable gram-positive and gram-negative bacteria", "assay": "Differentiation in RIND XXIX solution assays, overall result", "format": "cell-based", "settings": "gramicidin S 0.1 mg/ml, tyrocidin 3.3 mg/ml", "experimental": "Each test solution contained the following: dispersion of RIND XXIX (25 μl) prepared as described above, glucose (400 μl of 10% aqueous solution), tryptose (400 μl of 10% aqueous solution), trimethyl-1,4-benzoquinone ETA (500 μl of 1.5 mg/ml methanol). Aliquots (200 μl) of the mixture were mixed with solutions of the antibiotics (50 μl). The cell suspensions (50 μl) were then added. The final concentration of gramcidin S and tyrocidin were 0.1 mg/ml and 3.3 mg/ml, respectively. The final cell concentration was about 5×10^7 cells/ml. Cell control solutions contained all reagents except antibiotics. Background controls consisted of both buffer and solution controls. The buffer control contained all reagents except antibiotics and cells. The solution control contained all reagents except cells.\nThe solutions were incubated at 37° C. for 30 minutes, and the change in fluorescence emission (Δ fluorescence) was determined as the difference between the readings taken when the solutions were first mixed and then after 30 minutes incubation. Measurements were made in a commercially available MICROFLUOR Reader (available from Dynatech Laboratories, Alexandria, Virginia, U.S.A.), modified with an excitation filter at 540 nm, an emission filter at 620 nm and a Xenon lamp.\nThis example illustrates the practice of this invention to identify a Proteus species in solution. Test solutions and cell control solutions were prepared and tested as described in Example 2 and 3 except that polymixin B was used at 0.01 mg/ml of methanol. The final cell concentration was about 5×10^7 cells/ml."}, "[8]": {"tested_on": "viable gram-positive and gram-negative bacteria", "assay": "Differentiation with dry analytical element, overall result", "format": "cell-based", "settings": "dry analytical element with RIND IX", "experimental": "The element used had the format and components illustrated below\nThe appropriate cell suspension (10 μl) was applied to the spreading/reagent layer of each element. The reflection density (DR) was measured at 640 nm. After 10 minutes of incubation at 37° C., the DR was again measured, giving a ΔDr value. A Control solution (10 μl of either 0.5 molar HEPES or potassium phosphate buffer) was also applied to the elements and the ΔDR was similarly determined. The difference between the two ΔDR values gives a test value corrected for background."}},
  "data": [
    {"substance": "gramicidin S", "values": [
      {"measurement": "Corrected ΔOD (15 Minutes)", "setting": "K. pneumoniae [1]", "result": "> 2.0"},
      {"measurement": "Corrected ΔOD (15 Minutes)", "setting": "S. aureus [2]", "result": 0.107},
      {"measurement": "Corrected ΔOD (15 Minutes)", "setting": "S. pyogenes", "result": 0.186},
      {"measurement": "ΔOD, 540 nm after 30 Minutes", "setting": "S. faecalis [3]", "result": 0.073},
      {"measurement": "ΔOD, 540 nm after 30 Minutes", "setting": "K. pneumoniae [4]", "result": 1.207},
      {"measurement": "ΔOD, 620 nm after 30 Minutes", "setting": "S. aureus [5]", "result": 0.096},
      {"measurement": "ΔOD, 620 nm after 30 Minutes", "setting": "S. faecalis [6]", "result": 0.066},
      {"measurement": "ΔOD, 620 nm after 30 Minutes", "setting": "E. cloacae", "result": 0.997},
      {"measurement": "differentiation between viable gram-positive and gram-negative bacteria, in words", "setting": "[7]", "result": "can be used with RIND XXIX to differentiate between viable gram-positive and gram-negative bacteria"},
      {"measurement": "differentiation between viable gram-positive and gram-negative bacteria in an element, in words", "setting": "[8]", "result": "can be used in an element to differentiate between viable gram-positive and gram-negative bacteria"}
    ]}
  ]
}
